Assay results from patent publication US20110105382A1, “CALMODULIN-BINDING PEPTIDES THAT REDUCE CELL PROLIFERATION IN CANCER AND SMOOTH MUSCLE PROLIFERATION DISEASES” (priority 2007, published 2011).
Entries after “also recorded” stand apart in the source; their conditions may differ. Where no end group is shown, it is not given here.

Assays:
primary mouse aortic SMC = type: cell-based
Method: (§1) Cell culture conditions The isolation and culture of primary mouse aortic VSMC have was performed according to methods previously described (Afroze T, Yang L L, Wang C, Gros R, Kalair W, Hogue A N, Mungrue I N, Zhu Z, Husain M. Calcineurin-independent regulation of plasma membrane Ca2+ ATPase-4 in the vascular smooth muscle cell cycle. Am J Physiol Cell Physiol. July 2003; 285(1):C88-95). VSMCs were grown in DMEM (GIBCO/BRL, Gaithersburg, Md.) supplemented with 10% FBS (Hyclone, Logan, Utah), 50 ng/mL platelet-derived growth factor (PDGF, Sigma) and 1% penicillin-streptomycin (GIBCO/BRL). For serum starvation, cells were grown to 60% to 70% confluence, washed twice with PBS, and cultured in starvation medium (0.25% FBS-supplemented DMEM) for 72 hours to achieve Go arrest. Progression to G1/S was brought about by stimulation with 10% FBS and 50 ng/mL PDGF for 24 hours. Cells and reagents for primary human aortic VSMC culture were purchased from Cascade Biologics. Human VSMC(C-007-5C) were grown in Medium 231 with Smooth Muscle Growth Supplement (SMGS) S-007-25 and 1% penicillin-streptomycin (GIBCO/BRL). Cyclin E1/E2 double knockout mouse embryonic fibroblasts (MEF) were kindly provided by Dr. P. Sicinski (Harvard Medical School), and maintained in DMEM with 10% FBS (Hyclone) and 1% penicillin-streptomycin (GIBCO/BRL). Go arrest of MEF was achieved by starvation for 48 h in medium lacking FBS. Mouse embryonic fibroblasts (MEF) were maintained for normal culture in 10% FBS-supplemented DMEM. For the starvation of MEF, cells were cultured in starvation medium without FBS for 48 hours to achieve Go arrest. HeLa (human cervical cancer cell), Saos-2 (human osteosarcoma cell) and A549 (human lung cancer cell) were cultured in 10% FBS-supplemented DMEM.
(§2) MTT colorimetric survival assay. Active mitochondria of living cells can cleave MTT to produce formazan, the amount of which is directly proportional to the number of living cells. Cell survival was assessed (Denizot, 1986). Cells in 96-well plate were washed two times with PBS followed by 4 hr of incubation at 37° C. with 1 mg/ml of MTT (in phenol red free DMEM supplemented with 2 mM of L-glutamine & 1 mM of sodium pyruvate) in a reaction volume of 100 μl. After removing MTT solution, DMSO was added to dissolve formazan crystals. Plate was shaken for 5 min at 55° C. for complete dissolve. Dye absorbance in viable cells was measured at 570 nm with 630 nm as a reference wavelength. All experiments were repeated at least 3 times, and each experimental condition was repeated in at least quadruplicate wells in each experiment.
Nucleofection. For peptides delivery via Nucleofector technology, 1×10^6 cells were harvested, resuspended in 100 μl of Nucleofector solution (for VSMC: Cat. No. VPI-1004; for MEF: Cat. No.: VPD-1005, both provided by Amaxa GmBH, Köln, Germany) and mixed with 100 nmole (in 10 μl) of each peptide. The cell solution was transferred into a kit-provided cuvette and positioned into a Nucleofector device. Subsequently, the transfection was performed with a single pulse using the preprogrammed nucleofection program (A-33 for VSMC; T-20 for MEF) according to the manufacturer's recommendation. Following nucleofection, the cells were transferred into 96-well plate (2K or 5K cells per well for MTT assay) or T25 culture flasks (for FACS analysis) containing pre-warmed stem cell medium using kit-provided plastic pipettes to prevent cell damage and the cells were cultured at 37° C. in 5% CO2.

[1] = system: HeLa (human cervical cancer cell); assay: MTT proliferation assay, HeLa; type: cell-based; conditions: 100 μM, MTT after 2 days
Method: as §1, §2

[2] = system: Saos-2 (human osteosarcoma); assay: MTT proliferation assay, Saos-2; type: cell-based; conditions: 100 μM, MTT after 2 days
Method: as §1, §2

[3] = system: A549 (human lung cancer cell); assay: MTT proliferation assay, A549; type: cell-based; conditions: 100 μM, MTT after 2 days
Method: as §1, §2

[4] = system: primary human aortic VSMC; assay: 3H-thymidine incorporation assay, human aortic VSMC; type: cell-based; conditions: 10 and 100 μM for 1.0 h, 72 h after treatment; listed as TAT-CBS
Method: (§3) Cell culture conditions The isolation and culture of primary mouse aortic VSMC have was performed according to methods previously described (Afroze T, Yang L L, Wang C, Gros R, Kalair W, Hogue A N, Mungrue I N, Zhu Z, Husain M. Calcineurin-independent regulation of plasma membrane Ca2+ ATPase-4 in the vascular smooth muscle cell cycle. Am J Physiol Cell Physiol. July 2003; 285(1):C88-95). VSMCs were grown in DMEM (GIBCO/BRL, Gaithersburg, Md.) supplemented with 10% FBS (Hyclone, Logan, Utah), 50 ng/mL platelet-derived growth factor (PDGF, Sigma) and 1% penicillin-streptomycin (GIBCO/BRL). For serum starvation, cells were grown to 60% to 70% confluence, washed twice with PBS, and cultured in starvation medium (0.25% FBS-supplemented DMEM) for 72 hours to achieve Go arrest. Progression to G1/S was brought about by stimulation with 10% FBS and 50 ng/mL PDGF for 24 hours. Cells and reagents for primary human aortic VSMC culture were purchased from Cascade Biologics. […]
(§4) ^3H-thymidine incorporation proliferation assay. […] Cells were grown at 37° C. and analyzed at 24, 48 and 72 h after ^3H-thymidine exposure. […] Solubilized contents of wells were removed and added to 2.5 ml of scintillation fluid (ReadySafe™ Cocktail, Beckman Coulter, Product No. 141349). Radioactivity was measured in a scintillation counter (Beckman Coulter, LS 6500).

MEF = assay: 3H-thymidine incorporation assay, MEF; type: cell-based, mouse; conditions: 10 and 100 μM for 1.0 h, 48 h after treatment; listed as TAT-CBS
Method: as §3, §4

Cyclin E1/E2 KO MEF = assay: 3H-thymidine incorporation assay, Cyclin E1/E2 KO MEF; type: cell-based, mouse; conditions: 10 and 100 μM for 1.0 h, 48 h after treatment; listed as TAT-CBS
Method: as §3, §4

[5] = system: cyclins E1/E2 double knockout MEF; assay: Cell cycle analysis, cyclin E1/E2 double knockout MEF; type: cell-based, mouse; conditions: starved cells, serum stimulation 10% FBS, 24 hr (peptide) or 20 hr (CMZ)
Method: as §3, with “Biologics. Human VSMC(C-007-5C) were grown in Medium 231 with Smooth Muscle Growth Supplement (SMGS) S-007-25 and 1% penicillin-streptomycin (GIBCO/BRL).” for “Biologics.”
Flow cytometric analysis. […] Cells were counted in a flow cytometer (FACScan, BD Biosciences), and G0/G1, S, and G2/M cell percentages were calculated with Cell Quest software (BD Biosciences).

Molecule	IC50 (primary mouse aortic SMC) [µM]	maximum level of inhibition of VSMC proliferation (primary mouse aortic SMC) [%]	proliferation of HeLa cells (MTT) [1]	proliferation of Saos-2 cells (MTT) [2]	proliferation of A549 cells (MTT) [3]	3H-thymidine incorporation (S-phase entry), human aortic VSMC [4]	3H-thymidine incorporation (S-phase entry), MEF (MEF)	3H-thymidine incorporation (S-phase entry), Cyclin E1/E2 KO MEF (Cyclin E1/E2 KO MEF)	cell cycle progression into S phase, cyclins E1/E2 double knockout MEF [5]
RRRQRRKKRGGGAEFSARSRKRKANVTVFLQD [TAT-SEQ ID NO:2]	8.89 ± 1.24	70	inhibited	inhibited	inhibited	dose-dependent inhibitory effect; also recorded: inhibited; also recorded: dose-dependent, anti-proliferative effect	observed; also recorded: dose-dependent, anti-proliferative effect	not and not able to produce an anti-proliferative effect	
Clc1ccc(C(c2ccc(Cl)cc2)n2cc[n+](CC(OCc3ccc(Cl)cc3Cl)c3ccc(Cl)cc3Cl)c2)cc1 (stereo not drawn) [calmidazolium]									did inhibit
